# Tests used:
# rat cardiomyocytes = assay: ROS (DCFH-DA) and Ca2+ (Fluo-4 AM) detection in PE-stimulated cardiomyocytes; format: cell-based
# Excerpt: Elevated cytoplasmic calcium was also observed in PE‐stimulated rat cardiomyocytes after Fluo‐4 AM staining. […] Since the channel subunit Orai1 and stromal interaction molecule 1 (STIM1) are known to participate in the orchestration of Ca^2+ entry into cells and are regulated by multiple kinases including SGK1,^[ [33] ^] we examined if HBT regulates their activities. […] Orai1 may be regulated by Nedd4‐like E3 ubiquitin protein ligase (Nedd4l) mediated degradation or the transcription factor nuclear factor‐κB (NF‐κB) dependent transcription, so we detected the effects of HBT on SGK1 downstream proteins. […] Therefore, HBT may also attenuate cardiomyocyte hypertrophy by reducing cytoplasmic calcium level.
# Fluo-4 AM were obtained from Beyotime. SGK1 antibody and GAPDH antibody were obtained from Beyotime. FoxO1, Phospho-FoxO1 (Ser256), p44/42 MAPK (Erk1/2), […]
# p65, Phospho-GSK-3β (Ser9), GSK-3β, Phospho-NDRG1 (Thr346), NDRG1, Phospho-NEDD4L (Ser342), NEDD4L, HO-1, Nrf2 and MnSOD antibody were obtained from Cell Signaling. Phospho-SGK1(S422) antibody was obtained from Affinity. Orai1, STIM1, ACTA1 and FLAG antibody were obtained from Proteintech. BNP antibody was obtained from Abcam. ANP antibody was obtained from Santa Cruz Biotechnology. Myosin antibody was obtained from Sigma-Aldrich. Reference compounds were obtained from Shanghai Yuanye Biotechnology. Lipofectamine 2000 transfection reagent was purchased from Invitrogen. Protein A/G agarose was purchased from Beaver Biotechnology.
# Phenylephrine (PE) was obtained from Aladdin. Deionized water was prepared with an Elga PURELAB flex system (ELGA LabWater, UK). […]
# Micro® Confocal High-Content Imaging System (Molecular Devices). […]
# BSA for 1 h, the cells were incubated overnight at 4 °C with rabbit anti-FoxO1 antibody and then with goat anti-rabbit AlexaFluor 488–conjugated antibody for 1 h at room temperature.
# Nuclei were stained with Hoechst. Images were acquired using a high-resolution laser confocal microscope (Leica) using an oil immersion A-Plan ×63 objective.
# 3. ROS and Ca2+ Detection
# ROS and Ca2+ levels were detected using DCFH-DA and Fluo-4 AM reagent (Beyotime) respectively according to the manufacturer’s instructions. After incubated for 48 hours, the supernatant was removed and cells were washed with PBS for three times. 100 μL DCFH-DA […]
# or Fluo-4 AM working solution was added to each well and incubated at 37℃ for 20 minutes.
# Then the cells were washed with PBS for 3 times and images were acquired using an ImageXpress Micro® Confocal High-Content Imaging System (Molecular Devices). The mean fluorescence intensity of cells positive for DCFH-DA or Fluo-4 AM staining was […]
# 4. Histology and Immunohistochemistry (IHC) […]
# (Sigma) according to the manufacturer’s protocol. […]
# SGK1 = target: T1, SGK1 (Homo sapiens, UniProt O00141); assay: Cellular thermal shift assay in cell lysates; format: binding
# T1 sequence (O00141 1-431): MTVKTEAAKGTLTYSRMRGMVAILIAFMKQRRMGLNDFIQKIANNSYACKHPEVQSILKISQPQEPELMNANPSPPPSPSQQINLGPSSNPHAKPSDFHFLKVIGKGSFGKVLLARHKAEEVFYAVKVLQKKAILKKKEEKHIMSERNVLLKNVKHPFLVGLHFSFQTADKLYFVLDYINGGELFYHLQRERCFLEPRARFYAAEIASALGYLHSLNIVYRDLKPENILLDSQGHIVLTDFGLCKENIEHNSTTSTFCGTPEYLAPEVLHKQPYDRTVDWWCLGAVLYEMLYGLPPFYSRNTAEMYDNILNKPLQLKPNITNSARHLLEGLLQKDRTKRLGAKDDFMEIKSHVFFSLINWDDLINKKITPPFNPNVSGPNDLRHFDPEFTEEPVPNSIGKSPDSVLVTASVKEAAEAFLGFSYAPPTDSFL
# Excerpt: To identify active compounds with SGK1 inhibitory activity from Ext.R, a novel mass‐spectrometry based kinase inhibitory assay was developed. A polypeptide sequence ([…], m/z: 618.6) derived from glycogen Synthase Kinase‐3(GSK3), a known substrate of SGK1, was optimized and synthesized. We subsequently used liquid chromatography coupled with mass spectrometry (LC/MS) to detect and quantify its phosphorylation level ([…](p)FAE, m/z:658.7) (Figure 3A).^[ [26] ^] Basal level SGK1 was supplemented to each well, and the peak area of phosphorylation was measured in the presence or absence of testing compounds. […] After investigating the major chemical constituents in Ext.R (Table S3, Supporting Information), a set of compounds in Ext.R were subsequently screened for their impacts on SGK1 activity. […] The direct interaction between HBT and SGK1 was further verified by temperature‐ and dose‐dependent cellular thermal shift assays (Figure 3E,F). We further performed a direct binding assay of HBT to SGK1 by KINOMEscan assay (Eurofins Discovery).
# Figure 3 Mass spectrometry‐based kinase inhibitory assay for screening SGK1 inhibitor. A) Illustration of the mass spectrometry‐based assay for screening SGK1 inhibitors. […] G) Direct binding assay of HBT to SGK1 by KINOMEscan assay (Eurofins Discovery).
# [1] = tested on: primary rat cardiomyocytes; assay: Phenylephrine (PE)-induced hypertrophy in primary cardiomyocytes (phalloidin cell area, RT-PCR, western blot); format: cell-based
# Protocol: The magnitude of cardiac hypertrophy was then evaluated by directly measuring the cell area after Alexa Fluor 488 phalloidin staining.
# Primary cultures of cardiac myocytes were prepared from neonatal rat hearts using the Neonatal Heart Dissociation Kit (MACS, Germany) according to the manufacturer's protocol. Cardiomyocyte cultures were plated in gelatin‐coated plates in a plating medium containing 10% serum. After 24 h of plating, the medium was then replaced with a serum‐free maintenance medium and incubated for another 24 h before being used for further study.
# For phenylephrine (PE)‐mediated cardiac hypertrophy, cardiomyocytes cultured in 6‐well plates were stimulated with PE (50 µmol) for 48 h in serum‐free medium with or without Ext.R or HBT (50 µmol) treatment. Cardiomyocytes were lysed in cell lysis buffer to isolate protein or total RNA for western blotting or PCR analysis.
# Phalloidin Staining and Immunofluorescence
# To determine phenylephrine-induced hypertrophy, Alexa Fluor 488 Phalloidin (Cell Signaling) was used to fluorescently stain the cytoskeleton by the binding of phalloidin to F­actin. In brief, cells were fixed for 15 min using 4% paraformaldehyde then rinsed three times in PBS.
# Following incubation of Alexa Fluor 488 Phalloidin and Hoechst for 15 min at room temperature, cells were rinsed once with PBS. Images were carried out using an ImageXpress Micro® Confocal High-Content Imaging System (Molecular Devices).
compound,measurement,setting,value
"O=c1c(O)c(-c2ccc(O)cc2)oc2c(O)c(O)cc(O)c12 [HBT, herbacetin]","cytoplasmic calcium accumulation, Fluo-4 AM staining","rat cardiomyocytes; PE stimulation, cotreatment",effectively blocked
same,"free radicals (ROS), DCFH-DA staining","rat cardiomyocytes; PE stimulation, cotreatment",greatly inhibited
same,MnSOD expression,"rat cardiomyocytes; PE, western blot",restored
same,phosphorylation level of Erk,"rat cardiomyocytes; PE, western blot",downregulated
same,"thermal stability of SGK1, concentration-dependent cellular thermal shift assay",SGK1; 65 °C,increases the thermal stability of SGK1
same,"thermal stability of SGK1, temperature-dependent cellular thermal shift assay",SGK1; HBT 100 µmol,increases the thermal stability of SGK1
same,"PE-induced hypertrophy, cardiomyocyte cell area","[1]; 50 µmol PE 48 h, Ext.R 50 µg mL−1 or HBT 50 µmol",attenuate PE‐induced hypertrophy
same,transcriptional level of ANP and BNP,"[1]; 50 µmol PE, Ext.R or HBT",inhibited
same,phosphorylation of SGK1 and FoxO1,"[1]; PE stimulation, western blot",significantly reduce
same,"protein expression of ACTA1, BNP and Myosin","[1]; PE stimulation, western blot",significantly reduced
same,phosphorylation level of NF-κB p65 (Ser536),[1]; PE-treated cardiomyocytes,did not affect
same,phosphorylation of Nedd4l,[1]; induced by PE,reduce the phosphorylation

# From publication PMC8805583, “Discovery of Herbacetin as a Novel SGK1 Inhibitor to Alleviate Myocardial Hypertrophy” (Advanced Science, 2021)
